pIC50: −log10 of the molar value. “Also recorded” adds a separate entry of the source. No end group written: not given here.
What was measured:
P2/C2 complex = test: AlphaScreen competition, C2-Flag/P2-biotin complex; type: binding, human; settings: read-out: IC50, competition of P2/C2 complex; C2-Flag and P2-biotin; untagged competitor; AlphaScreen pH 7.4, 90 min room temperature
From the text: (§1) First, we did a complementation experiment to test whether a CaM molecule that binds to the C2 fragment of TRPV4 through its C-lobe can form an additional interaction with another CaM binding domain thus forming a ternary complex. […] We used an AlphaScreen-based proximity assay (Fig. 2, Methods S1) in which the acceptor beads were coated with the C-terminal fragment C2-Flag, and the donor beads either with the N-terminal CaM binding peptide P2-biotin, or, as a negative control, with C2-biotin. The interaction between the proteins was measured in the presence of increasing CaM concentrations in 100 µM Ca^2+ or 1 mM EGTA (Fig. 3A).
(§2) AlphaScreen acceptor and donor beads were coated with C2-Flag and either P2-biotin (Fig. 7D) or CaM-biotin at 100 µM Ca^2+ (Fig. 7E) and incubated with untagged C2 or N2 competitor proteins at the indicated concentrations. […] A similar finding was observed when the CaM/C2 interaction was subjected to competition by C2 or N2 (Fig. 7E).
Proteins were expressed in E. coli, affinity purified and biotinylated if applicable (for details see Methods S1). For protein interaction measurements, a proximity assay system based on the AlphaScreen technology (PerkinElmer) was used (see Methods S1). […] After incubation for 90 min at room temperature, the AlphaScreen output signal was recorded in a Fusion alpha FP instrument (PerkinElmer) at 2 s reading time per well. […]

N2 = test: Gel filtration, N2 dimerization; type: physicochemical, human; settings: non-denaturing, 50 mM sodium phosphate pH 7.0, 200 mM KCl
Description: Purified proteins or gel filtration standard (BioRad) were loaded onto a Bio-Sil 250 (BioRad) size exclusion chromatography column and eluted with a buffer containing 50 mM sodium phosphate, pH 7.0 and 200 mM KCl. The elution profile was recorded by continuous absorption measurement at 280 nm.

CaM/C2 complex = test: AlphaScreen competition, C2-Flag/CaM-biotin complex; type: binding, human; settings: C2-Flag and CaM-biotin at 100 µM Ca^2+; untagged competitor; AlphaScreen pH 7.4, 90 min room temperature
Description: as §2
(§3) Proteins were expressed in E. coli, affinity purified and biotinylated if applicable (for details see Methods S1). For protein interaction measurements, a proximity assay system based on the AlphaScreen technology (PerkinElmer) was used (see Methods S1). Briefly, streptavidin-coated AlphaScreen donor and anti-Flag acceptor beads at a final concentration of 16.7 µg/ml were incubated in a 384-well plate format (OptiPlate-384, PerkinElmer) with C2-GST-biotin or P2-biotin and the respective Flag-tagged interaction protein at concentrations of 10 nM, if not otherwise indicated. Assay buffer conditions were 50 mM Tris, pH 7.4, 100 mM KCl, and 0.1% BSA. After incubation for 90 min at room temperature, the AlphaScreen output signal was recorded in a Fusion alpha FP instrument (PerkinElmer) at 2 s reading time per well. AlphaScreen signals are given as mean±SEM in counts per second (cps) units.
Proteins used for competition experiments were subjected to gel filtration into the assay buffer using a PD-10 column (Amersham).

TRPV4 C2 fragment = test: AlphaScreen interdomain interaction with C2; type: binding, human; settings: 10 nM C2-biotin, N2-Flag 30 pM to 1.5 µM, N3 data not shown
From the text: as §1
In an AlphaScreen interaction experiment, donor and acceptor beads were incubated with 10 nM C2-biotin and N2-Flag at concentrations ranging from 30 pM to 1.5 µM, respectively (Fig. 3C).
as §3
The expression plasmids containing the cDNA for CaM or TRPV4 fragments in the pGEX-2TK vector (Amersham) or a modified derivative that contains an in-frame Flag epitope 5’ to the multiple cloning site were transformed into the BL21(DE3) Escherichia coli host, and protein expression was induced by 200 mg/ml IPTG at an OD600 of 0.6. […] The GST-Flag fusion proteins were eluted with 50 mM Tris, pH 8.5, 100 mM KCl, and 10 mM glutathione. […] The purity of all proteins was confirmed by SDS-polyacrylamide gel electrophoresis and Coomassie staining, and the protein concentration determined by the method according to Bradford using an albumin concentration standard. […]
To establish an improved interaction assay, that allows the quantification of protein interactions on a medium to high throughput scale, a commercially available proximity assay system based on the AlphaScreen (Amplified Luminescent Proximity Homogenous Assay) technology (PerkinElmer) was modified. […]

wild type N2 fragment = test: AlphaScreen N-terminal homologous interaction, wild type N2; type: binding, human; settings: nominally Ca^2+-free buffers
Description: (§4) Proteins were expressed in E. coli, affinity purified and biotinylated if applicable (for details see Methods S1). For protein interaction measurements, a proximity assay system based on the AlphaScreen technology (PerkinElmer) was used (see Methods S1). […] Assay buffer conditions were 50 mM Tris, pH 7.4, 100 mM KCl, and 0.1% BSA. After incubation for 90 min at room temperature, the AlphaScreen output signal was recorded in a Fusion alpha FP instrument (PerkinElmer) at 2 s reading time per well. AlphaScreen signals are given as mean±SEM in counts per second (cps) units.

N2 mutant WIA = test: AlphaScreen N-terminal homologous interaction, N2 mutant WIA; type: binding, human; settings: nominally Ca^2+-free buffers
Description: as §4

Substance | pIC50 (P2/C2 complex) | oligomeric state (N2) | pIC50 (CaM/C2 complex) | interaction with C2 (TRPV4 C2 fragment) | binding of P2 to wild type N2 (wild type N2 fragment) | binding of P2 to N2 mutant WIA (N2 mutant WIA)
N2: N-terminal TRPV4 fragment, residues 79-138 (VPNPIDLLESTLYESSVVPGPKKAPMDSLFDYGTYRHHSSDNKRWRKKIIEKQPQSPKAP; also: Flag tag; UniProt Q9HBA0 79-138, looked up, fragment) | 6.78 | a single peak was detected at a size that corresponds to the dimeric form; also recorded: monophasic elution profile with an apparent molecular size that corresponds with a dimeric form of the protein | 6.28 | interdomain interaction could also be shown |  | 
P2: N-terminal CaM binding peptide of TRPV4, residues 117-136 |  |  |  |  | bound strongly | bound strongly
